Read-outs that look alike come from different tables or passages of the source.
What was measured:
Assay in all cases: biochemical
ACTR2(h) = molecular target: T1, ACTR2(h) (Homo sapiens, UniProt P27037); set-up: Eurofins kinase panel, residual kinase activity (%) at 10 uM relative to DMSO
T1 construct: gene ACVR2A
Protocol: Eurofins performed a “Full KP Panel [Km ATP], KinaseProfile” which contains 429 radiometric kinase activity assays. The remaining kinase activity (%) was determined after treatment with the compounds at a concentration of 10 µM (Cfr. supporting information). Since we could not confirm the interaction between Spautin-1 analogues and USP13, a kinase screening was performed using a set of four compounds (Spautin-1 and three analogues) to discover off-targets and identify kinases that are potentially responsible for the reduction in cell viability observed in our screen (Table 2). The KINOMEscan from Eurofins was performed (see Table S1). This screen consists of a competitive binding assay in which the DNA-tagged kinase is incubated with one of the compounds in the presence of immobilized active site binding ligands. Binding of the compounds to the kinase hampers the binding of the kinase to the ligands and this inhibition was quantified by qPCR.

NEK6(h) = NEK6(h) (Homo sapiens, UniProt Q9HC98); set-up: Eurofins KinaseProfiler full panel at Km ATP, residual kinase activity (%) relative to DMSO
NEK6(h), sequence (Q9HC98 whole entry): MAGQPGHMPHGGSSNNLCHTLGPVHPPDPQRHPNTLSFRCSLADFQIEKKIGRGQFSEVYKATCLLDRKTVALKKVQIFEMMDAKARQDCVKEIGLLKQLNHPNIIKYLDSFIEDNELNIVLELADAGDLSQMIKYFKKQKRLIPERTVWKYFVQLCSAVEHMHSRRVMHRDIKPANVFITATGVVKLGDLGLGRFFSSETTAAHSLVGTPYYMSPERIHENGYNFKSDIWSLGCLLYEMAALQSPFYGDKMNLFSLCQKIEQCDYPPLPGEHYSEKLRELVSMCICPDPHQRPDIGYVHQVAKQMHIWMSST
Method in brief: (§1)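 Compounds screened at 10 µM in radiometric kinase activity assays at Km ATP, reported as remaining kinase activity (%). A KINOMEscan competition-binding screen at 10 µM measured DNA-tagged kinase retained on immobilized active-site ligand by qPCR.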

PI3KC2g(h) = molecular target: T2, PI3KC2g(h) (Homo sapiens, UniProt O75747); set-up: Eurofins KinaseProfiler full panel at Km ATP, residual kinase activity (%) relative to DMSO
T2 construct: gene PIK3C2G
T2 sequence (O75747 1-1486): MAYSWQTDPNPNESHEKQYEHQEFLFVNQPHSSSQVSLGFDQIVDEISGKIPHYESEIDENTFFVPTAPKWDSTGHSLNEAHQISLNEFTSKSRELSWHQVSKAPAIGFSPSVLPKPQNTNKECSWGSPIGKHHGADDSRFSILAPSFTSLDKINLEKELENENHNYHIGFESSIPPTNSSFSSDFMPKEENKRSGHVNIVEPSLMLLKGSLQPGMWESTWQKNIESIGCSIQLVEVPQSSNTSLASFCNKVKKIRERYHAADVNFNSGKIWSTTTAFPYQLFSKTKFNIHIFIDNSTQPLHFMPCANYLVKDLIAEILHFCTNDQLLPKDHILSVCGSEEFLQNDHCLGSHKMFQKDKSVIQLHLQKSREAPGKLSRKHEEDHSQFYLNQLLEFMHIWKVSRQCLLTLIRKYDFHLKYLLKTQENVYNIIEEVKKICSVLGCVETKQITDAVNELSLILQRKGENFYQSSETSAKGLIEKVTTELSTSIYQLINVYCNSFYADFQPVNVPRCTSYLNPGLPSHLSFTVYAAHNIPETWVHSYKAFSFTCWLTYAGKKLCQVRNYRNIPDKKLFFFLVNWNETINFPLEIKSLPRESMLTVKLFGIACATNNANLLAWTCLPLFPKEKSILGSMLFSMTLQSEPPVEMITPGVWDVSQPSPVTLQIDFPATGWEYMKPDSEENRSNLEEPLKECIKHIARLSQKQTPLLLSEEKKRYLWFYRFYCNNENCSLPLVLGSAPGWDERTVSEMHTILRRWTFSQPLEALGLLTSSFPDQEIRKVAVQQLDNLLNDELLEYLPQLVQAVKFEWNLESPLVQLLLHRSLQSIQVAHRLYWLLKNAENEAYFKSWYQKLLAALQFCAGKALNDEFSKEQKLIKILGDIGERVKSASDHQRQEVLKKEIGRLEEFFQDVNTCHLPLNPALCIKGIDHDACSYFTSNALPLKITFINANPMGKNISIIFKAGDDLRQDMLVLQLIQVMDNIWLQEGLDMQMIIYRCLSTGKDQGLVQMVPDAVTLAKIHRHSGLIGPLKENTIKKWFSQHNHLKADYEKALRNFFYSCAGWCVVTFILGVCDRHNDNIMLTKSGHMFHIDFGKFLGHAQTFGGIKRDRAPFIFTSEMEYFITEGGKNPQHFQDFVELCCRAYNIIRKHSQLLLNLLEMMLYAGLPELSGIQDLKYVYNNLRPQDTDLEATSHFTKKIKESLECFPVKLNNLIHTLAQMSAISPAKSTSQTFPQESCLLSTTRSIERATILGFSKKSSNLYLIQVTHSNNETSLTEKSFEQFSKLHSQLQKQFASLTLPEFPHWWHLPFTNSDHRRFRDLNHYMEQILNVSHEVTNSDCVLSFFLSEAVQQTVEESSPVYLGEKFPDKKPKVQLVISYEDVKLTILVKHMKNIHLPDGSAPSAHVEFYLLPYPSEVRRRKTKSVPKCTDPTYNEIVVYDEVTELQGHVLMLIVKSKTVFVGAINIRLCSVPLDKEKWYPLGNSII
Method in brief: as §1

PKCγ(h) = molecular target: T3, PKCγ(h) (Homo sapiens, UniProt P05129); set-up: Eurofins KinaseProfiler full panel at Km ATP, residual kinase activity (%) relative to DMSO
T3 construct: gene PRKCG
Method in brief: as §1

VRK1(h) = molecular target: T4, VRK1(h) (Homo sapiens, UniProt Q99986); set-up: Eurofins KinaseProfiler full panel at Km ATP, residual kinase activity (%) relative to DMSO
T4 sequence (Q99986 1-396): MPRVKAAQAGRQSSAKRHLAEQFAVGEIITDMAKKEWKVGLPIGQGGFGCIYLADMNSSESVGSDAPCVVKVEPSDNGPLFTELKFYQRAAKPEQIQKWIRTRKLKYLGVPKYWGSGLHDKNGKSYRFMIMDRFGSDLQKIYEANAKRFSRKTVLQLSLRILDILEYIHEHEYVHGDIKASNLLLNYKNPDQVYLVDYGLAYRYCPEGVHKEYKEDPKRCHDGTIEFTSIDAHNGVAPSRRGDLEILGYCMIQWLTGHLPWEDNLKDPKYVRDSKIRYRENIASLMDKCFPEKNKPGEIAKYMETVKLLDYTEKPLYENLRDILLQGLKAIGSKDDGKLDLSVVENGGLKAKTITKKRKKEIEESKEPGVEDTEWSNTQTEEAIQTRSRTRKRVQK
Method in brief: as §1

[1] = read-out: Residual activity (%) 5ay
[2] = read-out: Residual activity (%) Spautin-1 5aa
[3] = read-out: Residual activity (%) 5at
[4] = read-out: Residual activity (%) 5as

T1 sequence (P27037 whole entry): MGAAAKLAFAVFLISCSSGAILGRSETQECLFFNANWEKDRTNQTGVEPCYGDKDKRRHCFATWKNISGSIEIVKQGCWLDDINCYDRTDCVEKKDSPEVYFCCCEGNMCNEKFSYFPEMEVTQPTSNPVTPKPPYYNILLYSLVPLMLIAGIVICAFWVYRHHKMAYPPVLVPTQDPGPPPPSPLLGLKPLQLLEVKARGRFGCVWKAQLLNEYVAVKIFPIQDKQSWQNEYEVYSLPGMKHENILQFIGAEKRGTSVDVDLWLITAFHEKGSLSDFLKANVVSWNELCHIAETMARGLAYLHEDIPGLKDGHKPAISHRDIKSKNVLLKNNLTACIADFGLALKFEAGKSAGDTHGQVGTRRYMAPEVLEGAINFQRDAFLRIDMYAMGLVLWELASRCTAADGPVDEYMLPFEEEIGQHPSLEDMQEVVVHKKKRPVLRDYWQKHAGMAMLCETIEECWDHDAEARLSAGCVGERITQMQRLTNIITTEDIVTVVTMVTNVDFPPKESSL

SMILES: COc1ccc2ncnc(Nc3cccc(F)c3)c2c1 [5ay, N-(3-Fluorophenyl)-6-Methoxy-4-Quinazolinamine]
- remaining activity at 10 µM (ACTR2(h); [1]): 85%
- remaining activity at 10 µM (NEK6(h); [1]): 91%
- remaining activity at 10 µM (PI3KC2g(h); [1]): 40%
- remaining activity at 10 µM (PKCγ(h); [1]): 81%
- remaining activity at 10 µM (VRK1(h); [1]): 89%

SMILES: Fc1ccc(CNc2ncnc3ccc(F)cc23)cc1 [5aa, 6-Fluoro-N-(4-fluorobenzyl)-4-Quinazolinamine]
- remaining activity at 10 µM (ACTR2(h); read-out: Residual activity (%) Spautin-1): 92%
- remaining activity at 10 µM (NEK6(h); [2]): 103%
- remaining activity at 10 µM (PI3KC2g(h); [2]): 70%
- remaining activity at 10 µM (PKCγ(h); [2]): 86%
- remaining activity at 10 µM (VRK1(h); [2]): 94%

SMILES: Fc1ccc2ncnc(NCCc3ccc(Cl)cc3)c2c1 [5at, N-[2-(4-Chlorophenyl)Ethyl]-6-Fluoro-4-Quinazolinamine]
- remaining activity at 10 µM (ACTR2(h); [3]): 97%
- remaining activity at 10 µM (NEK6(h); [3]): 79%
- remaining activity at 10 µM (PI3KC2g(h); [3]): 34%
- remaining activity at 10 µM (PKCγ(h); [3]): 72%
- remaining activity at 10 µM (VRK1(h); [3]): 79%

SMILES: Fc1ccc(CCNc2ncnc3ccc(F)cc23)cc1 [5as, 6-Fluoro-N-[2-(4-Fluorophenyl)Ethyl]-4-Quinazolinamine]
- remaining activity at 10 µM (ACTR2(h); [4]): 83%
- remaining activity at 10 µM (NEK6(h); [4]): 94%
- remaining activity at 10 µM (PI3KC2g(h); [4]): 57%
- remaining activity at 10 µM (PKCγ(h); [4]): 74%
- remaining activity at 10 µM (VRK1(h); [4]): 82%

From paper PMC7827406, “Structure–Activity Relationship (SAR) Study of Spautin-1 to Entail the Discovery of Novel NEK4 Inhibitors” (International Journal of Molecular Sciences, 2021)
